We go through six compounds from patent publication US6288060A, “Amino substituted pyrimidines and triazines” (Neurocrine Biosciences, Inc., priority 1998, dated 2001).

The target in one test is T1, human CRF receptors (Homo sapiens, UniProt P34998).
T1 construct: expressed in transfected cells
T1 sequence (P34998 24-415): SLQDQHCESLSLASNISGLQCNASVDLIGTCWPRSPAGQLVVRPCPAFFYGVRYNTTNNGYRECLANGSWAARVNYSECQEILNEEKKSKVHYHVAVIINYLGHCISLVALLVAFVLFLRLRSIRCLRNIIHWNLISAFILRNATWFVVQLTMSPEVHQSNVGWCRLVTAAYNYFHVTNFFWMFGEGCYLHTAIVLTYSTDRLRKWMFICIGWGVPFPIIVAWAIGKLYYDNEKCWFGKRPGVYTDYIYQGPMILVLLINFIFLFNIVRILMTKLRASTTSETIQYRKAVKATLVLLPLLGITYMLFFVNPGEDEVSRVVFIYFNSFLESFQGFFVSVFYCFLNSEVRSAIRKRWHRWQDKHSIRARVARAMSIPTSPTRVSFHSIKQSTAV
In words: radioligand binding assay, displacement of [125I]tyrosine-ovine CRF from CRF receptor (stably transfected cells). As to conditions: [125I]tyrosine-ovine CRF ~200 pM; cells stably transfected with human CRF receptors; 2 hours at 22° C. From the text:
The effectiveness of a compound as a CRF receptor antagonist may be determined by various assay methods. […] CRF receptor affinity may be determined by binding studies that measure the ability of a compound to inhibit the binding of a radiolabeled CRF (e.g. [^125 I]tyrosine CFR) to receptor (e.g., receptors prepared from rat cerebral cortex membranes). The radioligand binding assay described by DeSouza et al. (supra, 1987) provides an assay for determining a compound's affinity for the CRF receptor.
where L=radioligand and KD =affinity of radioligand for receptor (Cheng and Prusoff, Biochem. Pharmacol. 22:3099, 1973).
By utilizing various radiolabeled CRF ligands, the assay may be used to evaluate the binding activity of the compounds of the present invention with any CRF receptor subtype. Briefly, the binding assay involves the displacement of a radiolabeled CRF ligand from the CRF receptor.
More specifically, the binding assay was performed in 1.5 ml Eppendorf tubes using approximately 1×10^6 cells per tube stably transfected with human CRF receptors. Each tube received about 0.1 ml of assay buffer (e.g., Dulbecco's phosphate buffered saline, 10 mM magnesium chloride, 20 μM bacitracin) with or without unlabeled sauvagine, urotensin I or CRF (final concentration, […]) to determine nonspecific binding, 0.1 ml of [^125 I] tyrosine--ovine CRF (final concentration ~200 pM or approximately the KD as determined by Scatchard analysis) and 0.1 ml of a membrane suspension of cells containing the CRF receptor. The mixture was incubated for 2 hours at 22° C. followed by the separation of the bound and free radioligand by centrifugation. Following two washes of the pellets, the tubes were cut just above the pellet and monitored in a gamma counter for radioactivity at approximately 80% efficiency. All radioligand binding data was analyzed using a non-linear least-square curve-fitting program. Binding activity corresponds to the concentration (nM) of the compound necessary to displace 50% of the radiolabeled ligand from the receptor.
Compound `CCCN(CC1CC1)c1nc(C)nc(C(=O)c2c(OC)cc(OC)cc2OC)c1C` [Compound 2] gave a Ki not above 250 nM.
The same measure, in the same setting: the value for `CCCN(CC1CC1)c1nc(C)nc(C(=O)c2c(C)cc(C)cc2C)c1C` [Compound 5] was not above 250 nM.
Same read-out and setting: the value for `CCCN(CC1CC1)c1nc(C)nc(C(=O)c2c(CC)cc(CC)cc2CC)c1C` [Compound 8] was not above 250 nM.
The same measure, in the same setting: the value for `CCCN(CCC)c1nc(C)nc(C(=O)c2c(C)cc(C)cc2C)c1C` [Compound 13] was not above 250 nM; that for `C=CCN(CC=C)c1nc(C)nc(C(=O)c2c(C)cc(C)cc2C)c1C` [Compound 14] was not above 250 nM; that for `CCCN(CC1CC1)c1nc(C)nc(Cc2c(OC)cc(OC)cc2OC)c1C` [Compound 20, 2,6-dimethyl-4-(N-propyl-N-cyclopropylmethylamino)-6-(2',4',6'-trimethyloxyphenylmeth-1'-yl)-pyrimidine] was not above 250 nM.

The same test, now with this note: result in words, same radioligand binding assay.
As for `CCCN(CC1CC1)c1nc(C)nc(C(=O)c2c(CC)cc(CC)cc2CC)c1C` [Compound 8], the “score in CRF receptor binding test (ranking among compounds)” value was “best score”.
